From the NIST ThermoML archive (doi:10.1021/je500093z)

Key:
[1] = refractive index (Na D-line) (dimensionless); conditions: 101.33 kPa, Liquid, Standard Abbe refractometry
[2] = for surface tension liquid-gas: Ring tensiometer; for viscosity / speed of sound / mass density: 101.33 kPa, Liquid; for speed of sound: Pulse-echo method; for mass density: Vibrating tube method

CCCCCCCC[n+]1ccn(C)c1.F[P-](F)(F)(F)(F)F [1-octyl-3-methylimidazolium hexafluorophosphate]
Conditions	mass density, [2] [kg/m3]	refractive index, [1]	speed of sound, [2] [m/s]	surface tension liquid-gas, [2] [mN/m]	viscosity, [2] [mPa·s]
298.15 K	1234	1.4217	1404.7	36.1	603.44
303.15 K	1231	1.4211	1390.3	35.9	430.88
308.15 K	1226	1.4206	1376.6	35.6	314.44
313.15 K	1223	1.4201	1363.6	35.3	234.24
318.15 K	1219	1.4195	1351	35.1	177.79
323.15 K	1215	1.4186	1338.9	34.9	137.24
328.15 K	1211	1.4177	1327	34.6	107.58
333.15 K	1208	1.4167	1315.5	34.3	85.58
